Results published in patent US9283222B2 (priority 2006, dated 2016).

target: Recombinant Human Poly(ADP-Ribose) Polymerase (PARP), PARP-1 (Homo sapiens (Human), UniProt P09874); settings: read-out: PARP-1 (Ki); Table 1; text calls the values EC50s
Sequence (P09874 whole entry): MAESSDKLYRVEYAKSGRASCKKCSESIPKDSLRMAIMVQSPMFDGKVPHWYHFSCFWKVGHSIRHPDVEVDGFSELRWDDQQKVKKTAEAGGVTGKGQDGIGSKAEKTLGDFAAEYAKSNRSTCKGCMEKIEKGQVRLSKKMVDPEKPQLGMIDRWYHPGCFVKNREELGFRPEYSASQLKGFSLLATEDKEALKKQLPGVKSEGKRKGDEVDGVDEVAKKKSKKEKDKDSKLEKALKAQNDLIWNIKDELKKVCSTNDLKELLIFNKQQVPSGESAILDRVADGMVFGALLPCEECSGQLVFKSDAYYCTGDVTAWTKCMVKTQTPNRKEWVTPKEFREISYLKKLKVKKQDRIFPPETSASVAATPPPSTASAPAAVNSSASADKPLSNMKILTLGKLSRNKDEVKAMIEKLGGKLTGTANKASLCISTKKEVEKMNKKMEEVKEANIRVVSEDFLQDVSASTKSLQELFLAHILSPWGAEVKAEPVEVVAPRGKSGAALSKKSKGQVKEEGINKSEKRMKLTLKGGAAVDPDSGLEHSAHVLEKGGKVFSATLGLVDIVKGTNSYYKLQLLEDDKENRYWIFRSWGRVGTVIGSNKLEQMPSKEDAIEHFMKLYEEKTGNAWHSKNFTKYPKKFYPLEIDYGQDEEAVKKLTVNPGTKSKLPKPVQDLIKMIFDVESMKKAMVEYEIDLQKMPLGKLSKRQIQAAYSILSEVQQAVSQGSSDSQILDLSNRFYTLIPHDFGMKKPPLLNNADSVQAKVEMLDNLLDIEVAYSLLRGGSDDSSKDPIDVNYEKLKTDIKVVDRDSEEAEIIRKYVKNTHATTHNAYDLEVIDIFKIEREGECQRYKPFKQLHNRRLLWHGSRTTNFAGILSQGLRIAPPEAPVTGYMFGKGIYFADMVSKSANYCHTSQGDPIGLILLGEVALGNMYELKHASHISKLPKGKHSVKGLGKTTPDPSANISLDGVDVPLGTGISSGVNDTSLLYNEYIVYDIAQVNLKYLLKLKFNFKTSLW

SMILES | Ki
CS(=O)(=O)c1cccc(-c2cc(Cc3n[nH]c(=O)c4c3CCCC4)ccc2F)c1 [Example 249, 4-((6-fluoro-3′-(methylsulfonyl)-1,1′-biphenyl-3-yl)methyl)-5,6,7,8-tetrahydrophthalazin-1(2H)-one] | 85 nM
O=C(c1cccc(-c2cc(Cc3n[nH]c(=O)c4c3CCCC4)ccc2F)c1)N1CCCC1 [Example 250, 4-((6-fluoro-3′-(pyrrolidin-1-ylcarbonyl)-1,1′-biphenyl-3-yl)methyl)-5,6,7,8-tetrahydrophthalazin-1(2H)-one] | 210 nM
O=C(c1ccc(-c2cc(Cc3n[nH]c(=O)c4c3CCCC4)ccc2F)cc1)N1CCCC1 [Example 251, 4-((6-fluoro-4′-(pyrrolidin-1-ylcarbonyl)-1,1′-biphenyl-3-yl)methyl)-5,6,7,8-tetrahydrophthalazin-1(2H)-one] | 446 nM
NC(=O)c1cccc(-c2cc(Cc3n[nH]c(=O)c4c3CCCC4)ccc2F)c1 [Example 252, 2′-fluoro-5′-((4-oxo-3,4,5,6,7,8-hexahydrophthalazin-1-yl)methyl)-1,1′-biphenyl-3-carboxamide] | 19 nM
CN(C)C(=O)c1ccc(-c2cc(Cc3n[nH]c(=O)c4c3CCCC4)ccc2F)cc1 [Example 253, 2′-fluoro-N,N-dimethyl-5′-((4-oxo-3,4,5,6,7,8-hexahydrophthalazin-1-yl)methyl)-1,1′-biphenyl-4-carboxamide] | 229 nM
O=c1[nH]nc(CCc2ccccc2)c2c1CCCC2 [Example 255, 4-(2-phenylethyl)-5,6,7,8-tetrahydrophthalazin-1(2H)-one] | 335 nM
CC(C)(C)OC(=O)N1CCN(C(=O)OCc2ccccc2)CC1Cc1n[nH]c(=O)c2c1CCCC2 (centres unmarked) [Example 258, 4-benzyl 1-tert-butyl 2-((4-oxo-3,4,5,6,7,8-hexahydrophthalazin-1-yl)methyl)piperazine-1,4-dicarboxylate] | 1770 nM
Nc1cccc(CCc2n[nH]c(=O)c3c2CCCC3)c1 [Example 260, 4-(2-(3-aminophenyl)ethyl)-5,6,7,8-tetrahydrophthalazin-1(2H)-one] | 243 nM
O=c1[nH]nc(CC2CNCCN2)c2c1CCCC2 (centres unmarked) [Example 261, 4-(piperazin-2-ylmethyl)-5,6,7,8-tetrahydrophthalazin-1(2H)-one] | 556 nM
O=C1CCCN1c1cccc(CCc2n[nH]c(=O)c3c2CCCC3)c1 [Example 262, 4-(2-(3-(2-oxopyrrolidin-1-yl)phenyl)ethyl)-5,6,7,8-tetrahydrophthalazin-1(2H)-one] | 304 nM
O=C(COc1ccccc1)Nc1cccc(CCc2n[nH]c(=O)c3c2CCCC3)c1 [Example 263, N-(3-(2-(4-oxo-3,4,5,6,7,8-hexahydrophthalazin-1-yl)ethyl)phenyl)-2-phenoxyacetamide] | 144 nM
O=C(c1cccc(-c2cc(CCc3n[nH]c(=O)c4c3CCCC4)ccc2F)c1)N1CCOCC1 [Example 264, 4-(2-(6-fluoro-3′-(morpholin-4-ylcarbonyl)-1,1′-biphenyl-3-yl)ethyl)-5,6,7,8-tetrahydrophthalazin-1(2H)-one] | 662 nM
COC(=O)c1cccc(CCc2n[nH]c(=O)c3c2CCCC3)c1 [Example 265, methyl 3-(2-(4-oxo-3,4,5,6,7,8-hexahydrophthalazin-1-yl)ethyl)benzoate] | 58 nM
O=C(c1ccc(-c2cc(CCc3n[nH]c(=O)c4c3CCCC4)ccc2F)cc1)N1CCOCC1 [Example 267, 4-(2-(6-fluoro-4′-(morpholin-4-ylcarbonyl)-1,1′-biphenyl-3-yl)ethyl)-5,6,7,8-tetrahydrophthalazin-1(2H)-one] | 534 nM
O=C(c1ccccc1-c1cc(CCc2n[nH]c(=O)c3c2CCCC3)ccc1F)N1CCCC1 [Example 268, 4-(2-(6-fluoro-2′-(pyrrolidin-1-ylcarbonyl)-1,1′-biphenyl-3-yl)ethyl)-5,6,7,8-tetrahydrophthalazin-1(2H)-one] | 638 nM
O=C(c1cccc(-c2cc(CCc3n[nH]c(=O)c4c3CCCC4)ccc2F)c1)N1CCCC1 [Example 269, 4-(2-(6-fluoro-3′-(pyrrolidin-1-ylcarbonyl)-1,1′-biphenyl-3-yl)ethyl)-5,6,7,8-tetrahydrophthalazin-1(2H)-one] | 1050 nM
O=C(NC1CC1)c1cccc(-c2cc(CCc3n[nH]c(=O)c4c3CCCC4)ccc2F)c1 [Example 270, N-cyclopropyl-2′-fluoro-5′-(2-(4-oxo-3,4,5,6,7,8-hexahydrophthalazin-1-yl)ethyl)-1,1′-biphenyl-3-carboxamide] | 487 nM
CN(C)CCNC(=O)c1cccc(-c2cc(CCc3n[nH]c(=O)c4c3CCCC4)ccc2F)c1 [Example 271, N-(2-(dimethylamino)ethyl)-2′-fluoro-5′-(2-(4-oxo-3,4,5,6,7,8-hexahydrophthalazin-1-yl)ethyl)-1,1′-biphenyl-3-carboxamide] | 1140 nM
NC(=O)c1cccc(-c2cc(CCc3n[nH]c(=O)c4c3CCCC4)ccc2F)c1 [Example 272, 2′-fluoro-5′-(2-(4-oxo-3,4,5,6,7,8-hexahydrophthalazin-1-yl)ethyl)-1,1′-biphenyl-3-carboxamide] | 204 nM

SMILES | Ki
CS(=O)(=O)Nc1cccc(-c2cc(CCc3n[nH]c(=O)c4c3CCCC4)ccc2F)c1 [Example 273, N-(2′-fluoro-5′-(2-(4-oxo-3,4,5,6,7,8-hexahydrophthalazin-1-yl)ethyl)-1,1′-biphenyl-3-yl)methanesulfonamide] | 257 nM
CC(=O)Nc1cccc(-c2cc(CCc3n[nH]c(=O)c4c3CCCC4)ccc2F)c1 [Example 274, N-(2′-fluoro-5′-(2-(4-oxo-3,4,5,6,7,8-hexahydrophthalazin-1-yl)ethyl)-1,1′-biphenyl-3-yl)acetamide] | 222 nM
CC(Cc1n[nH]c(=O)c2c1CCCC2)c1ccc(F)c(-c2cccc(C(=O)N3CCOCC3)c2)c1 (centres unmarked) [Example 275, 4-(2-(6-fluoro-3′-(morpholin-4-ylcarbonyl)-1,1′-biphenyl-3-yl)propyl)-5,6,7,8-tetrahydrophthalazin-1(2H)-one] | 471 nM
CC(Cc1n[nH]c(=O)c2c1CCCC2)c1ccc(F)c(-c2cccc(C(=O)N3CCCC3)c2)c1 (centres unmarked) [Example 276, 4-(2-(6-fluoro-3′-(pyrrolidin-1-ylcarbonyl)-1,1′-biphenyl-3-yl)propyl)-5,6,7,8-tetrahydrophthalazin-1(2H)-one] | 943 nM
CC(Cc1n[nH]c(=O)c2c1CCCC2)c1ccc(F)c(-c2cccc(C(=O)NC3CC3)c2)c1 (centres unmarked) [Example 277, N-cyclopropyl-2′-fluoro-5′-(1-methyl-2-(4-oxo-3,4,5,6,7,8-hexahydrophthalazin-1-yl)ethyl)-1,1′-biphenyl-3-carboxamide] | 436 nM
Nc1cc(Cc2n[nH]c(=O)c3c2CCCC3)ccc1Cl [Example 278, 4-(3-amino-4-chlorobenzyl)-5,6,7,8-tetrahydrophthalazin-1(2H)-one] | 185 nM
COc1ccc(Cc2n[nH]c(=O)c3c2CCCC3)cc1N [Example 279, 4-(3-amino-4-methoxybenzyl)-5,6,7,8-tetrahydrophthalazin-1(2H)-one] | 467 nM
Nc1cc(Cc2n[nH]c(=O)c3c2CCCC3)ccc1O [Example 280, 4-(3-amino-4-hydroxybenzyl)-5,6,7,8-tetrahydrophthalazin-1(2H)-one] | 303 nM
Cc1ccc(Cc2n[nH]c(=O)c3c2CCCC3)cc1N [Example 281, 4-(3-amino-4-methylbenzyl)-5,6,7,8-tetrahydrophthalazin-1(2H)-one] | 309 nM
CC(Cc1n[nH]c(=O)c2c1CCCC2)c1cccc(-c2cccc(C(=O)NCCN(C)C)c2)c1 (centres unmarked) [Example 282, N-(2-(dimethylamino)ethyl)-3′-(1-methyl-2-(4-oxo-3,4,5,6,7,8-hexahydrophthalazin-1-yl)ethyl)-1,1′-biphenyl-3-carboxamide] | 1710 nM
CC(Cc1n[nH]c(=O)c2c1CCCC2)c1cccc(-c2cccc(C(N)=O)c2)c1 (centres unmarked) [Example 283, 3′-(1-methyl-2-(4-oxo-3,4,5,6,7,8-hexahydrophthalazin-1-yl)ethyl)-1,1′-biphenyl-3-carboxamide] | 442 nM
CC(=O)Nc1cccc(-c2cccc(C(C)Cc3n[nH]c(=O)c4c3CCCC4)c2)c1 (centres unmarked) [Example 284, N-(3′-(1-methyl-2-(4-oxo-3,4,5,6,7,8-hexahydrophthalazin-1-yl)ethyl)-1,1′-biphenyl-3-yl)acetamide] | 2210 nM
CC(=O)Nc1cccc(-c2cccc(C(C)c3n[nH]c(=O)c4c3CCCC4)c2)c1 (centres unmarked) [Example 286, N-(3′-(1-(4-oxo-3,4,5,6,7,8-hexahydrophthalazin-1-yl)ethyl)-1,1′-biphenyl-3-yl)acetamide] | 58 nM
CC(c1cccc(-c2cccc(C(=O)NCCN(C)C)c2)c1)c1n[nH]c(=O)c2c1CCCC2 (centres unmarked) [Example 287, N-(2-(dimethylamino)ethyl)-3′-(1-(4-oxo-3,4,5,6,7,8-hexahydrophthalazin-1-yl)ethyl)-1,1′-biphenyl-3-carboxamide] | 771 nM
CC(Cc1n[nH]c(=O)c2c1CCCC2)c1cccc(C(=O)O)c1 (centres unmarked) [Example 288, 3-(1-methyl-2-(4-oxo-3,4,5,6,7,8-hexahydrophthalazin-1-yl)ethyl)benzoic acid] | 431 nM
COc1ccc(C(=O)CCC(=O)Nc2cc(Cc3n[nH]c(=O)c4c3CCCC4)ccc2F)cc1 [Example 289, N-(2-fluoro-5-((4-oxo-3,4,5,6,7,8-hexahydrophthalazin-1-yl)methyl)phenyl)-4-(4-methoxyphenyl)-4-oxobutanamide] | 0.7 nM
CC1=C(C)C(=O)N(c2cc(Cc3n[nH]c(=O)c4c3CCCC4)ccc2F)C1=O [Example 290, 1-(2-fluoro-5-((4-oxo-3,4,5,6,7,8-hexahydrophthalazin-1-yl)methyl)phenyl)-3,4-dimethyl-1H-pyrrole-2,5-dione] | 1 nM
O=C1C2CC2C(=O)N1c1cc(Cc2n[nH]c(=O)c3c2CCCC3)ccc1F (centres unmarked) [Example 291, 3-(2-fluoro-5-((4-oxo-3,4,5,6,7,8-hexahydrophthalazin-1-yl)methyl)phenyl)-3-azabicyclo(3.1.0)hexane-2,4-dione] | 0.7 nM
O=C(COc1ccccc1)N1CCNC(Cc2n[nH]c(=O)c3c2CCCC3)C1 (centres unmarked) [Example 292, 4-((4-(phenoxyacetyl)piperazin-2-yl)methyl)-5,6,7,8-tetrahydrophthalazin-1(2H)-one] | 116 nM
